Results as given in patent US20260109707A1, “HETEROBIFUNCTIONAL COMPOUNDS AND METHODS OF TREATING DISEASE” (Halda Therapeutics OpCo. Inc., priority 2022, published 2026).
Read-outs that look alike come from different tables or passages of the source.

Key:
[1] = system: T-Rex 293 cell line SC3 cells having increased expression of androgen receptor protein due to exposure to doxycycline; test: Cellular growth inhibition assay, T-Rex 293 SC3 cells with doxycycline (CellTiter-Glo, 72 hours); assay type: cell-based; settings: T-Rex 293 SC3 cells with increased androgen receptor expression due to doxycycline (10 ng/mL)
How it was run: (§1)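 Doxycycline (10 ng/mL) was either included or omitted to toggle wild-type androgen receptor expression in SC3 cells, a T-Rex 293 clone, grown in stripped-serum, phenol red-free medium. After 72 hours with compound, viable cells were quantified by CellTiter-Glo 2.0.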

[2] = system: T-Rex 293 cell line SC3 cells lacking increased expression of androgen receptor protein; test: Cellular growth inhibition assay, T-Rex 293 SC3 cells without doxycycline (CellTiter-Glo, 72 hours); assay type: cell-based; settings: T-Rex 293 cell line SC3 cells not exposed to doxycycline (lacking increased androgen receptor expression)
How it was run: as §1

VCaP cells = test: Cellular growth inhibition assay for VCaP cells (CellTiter-Glo, 72 hours); assay type: cell-based, human
How it was run: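 Luminescent viability signal after 72 h of compound exposure gave GI50 values by four-parameter nonlinear regression. Compounds were added in 0.5% DMSO to cells plated 24 h earlier at 5000/well in DMEM containing 10% FBS.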

T47D cells = test: Cellular growth inhibition assay for T47D cells (CellTiter-Glo, 72 hours); assay type: cell-based, human; settings: 72 hours treatment
How it was run: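 Growth inhibition as GI50, fitted with four parameters to CellTiter-Glo luminescence after 72 h of compound exposure (0.5% DMSO). Cells were T47D, grown in insulin-supplemented (0.2 units/mL) DMEM with 10% FBS and treated one day post-seeding.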

Row | SMILES | GI50 ([1]; 72 h) | GI50 ([2]; 72 h) | GI50 (VCaP cells; Homo sapiens, VCaP, 72 h) | GI50 (T47D cells; Homo sapiens, T47D, 72 h) | GI50 [1] | GI50 [2] | GI50 (VCaP cells) | GI50 (T47D cells)
1 | Cc1sc2c(c1C)C(c1ccc(OC3CC4(CCN(c5ncc(C(=O)N[C@H]6CC[C@H](Oc7ccc(C#N)c(Cl)c7)CC6)cn5)CC4)C3)cc1)=N[C@@H](Cc1ncco1)c1nnc(C)n1-2 [I-84] | < 500 nM | < 500 nM | < 500 nM | < 500 nM | – | – | – | –
2 | Cc1sc2c(c1C)C(c1ccc(N3CCC4(CC3)CCN(c3ccc(C(=O)N[C@H]5CC[C@H](Oc6ccc(C#N)c(Cl)c6)CC5)nn3)C4)cc1)=NCc1nnc(C)n1-2 [I-400] | < 500 nM | 500 to 1500 nM | 1500 to 3000 nM | > 3000 nM | – | – | – | –
3 | Cc1sc2c(c1C)C(c1ccc(-c3ccc(C4CCN(c5ccc(C(=O)NC6CCC(Oc7ccc(C#N)c(Cl)c7)CC6)nn5)CC4)cc3)cc1)=N[C@H](Cc1ncco1)c1nnc(C)n1-2 (some centres unmarked) [I-370] | < 500 nM | > 3000 nM | > 3000 nM | 500 to 1500 nM | – | – | – | –
4 | Cc1sc2c(c1C)C(c1ccc(CNC(=O)Cc3ccc(C(=O)N[C@H]4CC[C@H](Oc5ccc(C#N)c(Cl)c5)CC4)nn3)cc1)=N[C@@H](Cc1ncco1)c1nnc(C)n1-2 [I-300] | 500 to 1500 nM | > 3000 nM | < 500 nM | 500 to 1500 nM | – | – | – | –
5 | Cc1sc2c(c1C)C(c1ccc(CC[C@@H]3CCCN(c4ccc(C(=O)N[C@H]5CC[C@H](Oc6ccc(C#N)c(Cl)c6)CC5)nn4)C3)cc1)=N[C@@H](Cc1ncco1)c1nnc(C)n1-2 [I-255] | < 500 nM | < 500 nM | < 500 nM | 500 to 1500 nM | – | – | – | –
6 | Cc1sc2c(c1C)C(c1ccc(N3CC(C4CCN(c5ccc(C(=O)N[C@H]6CC[C@H](Oc7ccc(C#N)c(Cl)c7)CC6)nn5)CC4)C3)cc1)=N[C@@H](Cc1ncco1)c1nnc(C)n1-2 [I-386] | < 500 nM | < 500 nM | < 500 nM | < 500 nM | – | – | – | –
7 | Cc1sc2c(c1C)C(c1ccc(OC3CC4(CCN(c5ccc(C(=O)N[C@H]6CC[C@H](Oc7ccc(C#N)c(Cl)c7)CC6)nn5)CC4)C3)cc1)=N[C@](C)(C(C)c1ncco1)c1nnc(C)n1-2 (some centres unmarked) [I-237] | < 500 nM | > 3000 nM | > 3000 nM | < 500 nM | – | – | – | –
8 | Cc1sc2c(c1C)C(c1ccc(O[C@@H]3CC[C@]4(CCCN(c5ccc(C(=O)N[C@H]6CC[C@H](Oc7ccc(C#N)c(Cl)c7)CC6)nn5)C4)C3)cn1)=N[C@@H](Cc1ncco1)c1nnc(C)n1-2 [I-360] | < 500 nM | < 500 nM | < 500 nM | < 500 nM | – | – | – | –
9 | Cc1sc2c(c1C)C(c1ccc(N3CCC4(CCN(c5ccc(C(=O)N[C@H]6CC[C@H](Oc7ccc(C#N)c(Cl)c7)CC6)nn5)CC4)C3)cc1)=N[C@@H](Cc1ncco1)c1nnc(C)n1-2 [I-388] | < 500 nM | < 500 nM | < 500 nM | < 500 nM | – | – | – | –
10 | Cc1sc2c(c1C)C(c1ccc(C(=O)N3CCC(N(C)c4ccc(C(=O)N[C@H]5CC[C@H](Oc6ccc(C#N)c(Cl)c6)CC5)nn4)CC3)cc1)=N[C@@H](Cc1ncco1)c1nnc(C)n1-2 [I-306] | > 3000 nM | > 3000 nM | > 3000 nM | 1500 to 3000 nM | – | – | – | –
11 | Cc1sc2c(c1C)C(c1ccc(C#CC3CC4(C3)CN(c3ccc(C(=O)N[C@H]5CC[C@H](Oc6ccc(C#N)c(Cl)c6)CC5)nn3)C4)cc1)=N[C@@H](C)c1nnc(C)n1-2 [I-311] | < 500 nM | < 500 nM | < 500 nM | < 500 nM | – | – | – | –
12 | Cc1sc2c(c1C)C(c1ccc(C#CC3CC4(CCCN(c5ccc(C(=O)NC6CCC(Oc7ccc(C#N)c(Cl)c7)CC6)nn5)C4)C3)cc1)=NCc1nnc(C)n1-2 (centres unmarked) [I-419] | < 500 nM | > 3000 nM | < 500 nM | < 500 nM | – | – | – | –
13 | Cc1sc2c(c1C)C(c1ccc(C#CCN3[C@H](C)CN(c4ccc(C(=O)N[C@H]5CC[C@H](Oc6ccc(C#N)c(Cl)c6)CC5)nn4)C[C@@H]3C)cc1)=N[C@@H](Cc1ncco1)c1nnc(C)n1-2 [I-140] | < 500 nM | < 500 nM | < 500 nM | < 500 nM | – | – | – | –
14 | Cc1sc2c(c1C)C(c1ccc(N3CCC4(CCCN(c5ccc(C(=O)N[C@H]6CC[C@H](Oc7ccc(C#N)c(Cl)c7)CC6)nn5)C4)CC3)cc1)=N[C@@H](C)c1nnc(C)n1-2 [I-429] | – | – | – | – | < 500 nM | > 3000 nM | < 500 nM | > 3000 nM
15 | Cc1sc2c(c1C)C(c1ccc(C#CCC3CCN(c4ccc(C(=O)N[C@H]5CC[C@H](Oc6ccc(C#N)c(Cl)c6)CC5)nn4)CC3)cc1)=N[C@@H](Cc1ncco1)c1nnc(C)n1-2 [I-136, N-[4-(3-chloro-4-cyano-phenoxy)cyclohexyl]-6-[4-[3-[4-[(9S)-4,5,13-trimethyl-9-(oxazol-2-ylmethyl)-3-thia-1,8,11,12-tetrazatricyclo[8.3.0.02,6]trideca-2(6),4,7,10,12-pentaen-7-yl]phenyl]prop-2-ynyl]-1-piperidyl]pyridazine-3-carboxamide] | < 500 nM | < 500 nM | < 500 nM | < 500 nM | – | – | – | –
16 | CCNC(=O)C[C@@H]1N=C(c2ccc(CN3CCN(c4ccc(C(=O)N[C@H]5CC[C@H](Oc6ccc(C#N)c(Cl)c6)CC5)nn4)CC3)cc2)c2c(sc(C)c2C)-n2c(C)nnc21 [I-38] | < 500 nM | 500 to 1500 nM | < 500 nM | 500 to 1500 nM | – | – | – | –
17 | Cc1sc2c(c1C)C(c1ccc(C[C@H]3CCCN(c4ccc(C(=O)N[C@H]5CC[C@H](Oc6ccc(C#N)c(Cl)c6)CC5)nn4)C3)cc1)=N[C@@H](Cc1ncco1)c1nnc(C)n1-2 [I-253] | < 500 nM | < 500 nM | < 500 nM | < 500 nM | – | – | – | –
18 | Cc1sc2c(c1C)C(c1ccc(CCNC(=O)NCc3ccc(C(=O)N[C@H]4CC[C@H](Oc5ccc(C#N)c(Cl)c5)CC4)nn3)cc1)=N[C@@H](Cc1ncco1)c1nnc(C)n1-2 [I-293] | < 500 nM | > 3000 nM | < 500 nM | 500 to 1500 nM | – | – | – | –
19 | Cc1sc2c(c1C)C(c1ccc(OC3CC4(CCN(c5ccc(C(=O)N[C@H]6CC[C@H](Oc7ccc(C#N)c(Cl)c7)CC6)nn5)CC4)C3)cc1)=N[C@@H](CC#N)c1nnc(C)n1-2 [I-83] | < 500 nM | > 3000 nM | < 500 nM | < 500 nM | – | – | – | –
20 | Cc1sc2c(c1C)C(c1ccc(CNC(=O)[C@H]3CCCN(c4ccc(C(=O)N[C@H]5CC[C@H](Oc6ccc(C#N)c(Cl)c6)CC5)nn4)C3)cc1)=N[C@@H](Cc1ncco1)c1nnc(C)n1-2 [I-229] | < 500 nM | 500 to 1500 nM | 500 to 1500 nM | 1500 to 3000 nM | – | – | – | –
21 | Cc1sc2c(c1C)C(c1ccc(CC[C@@H]3CC[C@@]4(CCCN(c5ccc(C(=O)N[C@H]6CC[C@H](Oc7ccc(C#N)c(Cl)c7)CC6)nn5)C4)C3)cc1)=N[C@@H](Cc1ncco1)c1nnc(C)n1-2 [I-214] | > 3000 nM | > 3000 nM | > 3000 nM | > 3000 nM | – | – | – | –
22 | CCNC(=O)C[C@@H]1N=C(c2ccc(N(C)CCC3CCN(c4ccc(C(=O)N[C@H]5CC[C@H](Oc6ccc(C#N)c(Cl)c6)CC5)nn4)CC3)cc2)c2c(sc(C)c2C)-n2c(C)nnc21 [I-34] | < 500 nM | 500 to 1500 nM | 500 to 1500 nM | 500 to 1500 nM | – | – | – | –
23 | Cc1sc2c(c1C)C(c1ccc(C[C@H]3C[C@]4(CCCN(c5ccc(C(=O)N[C@H]6CC[C@H](Oc7ccc(C#N)c(Cl)c7)CC6)nn5)C4)C3)nc1)=N[C@@H](Cc1ncco1)c1nnc(C)n1-2 [I-385] | < 500 nM | > 3000 nM | < 500 nM | 500 to 1500 nM | – | – | – | –
24 | CCNC(=O)C[C@@H]1N=C(c2ccc(OC3CN(c4ccc(C(=O)N[C@H]5CC[C@H](Oc6ccc(C#N)c(Cl)c6)CC5)nn4)C3)cc2)c2c(sc(C)c2C)-n2c(C)nnc21 [I-47] | < 500 nM | 500 to 1500 nM | 500 to 1500 nM | 500 to 1500 nM | – | – | – | –
25 | Cc1sc2c(c1C)C(c1ccc(CCCN3CCCN(c4ccc(C(=O)N[C@H]5CC[C@H](Oc6ccc(C#N)c(Cl)c6)CC5)nn4)CC3)cc1)=N[C@@H](Cc1ncco1)c1nnc(C)n1-2 [I-126] | < 500 nM | < 500 nM | < 500 nM | < 500 nM | – | – | – | –
26 | Cc1sc2c(c1C)C(c1ccc([C@H]3C[C@@H](C4CCN(c5ccc(C(=O)N[C@H]6CC[C@H](Oc7ccc(C#N)c(Cl)c7)CC6)nn5)CC4)C3)cc1)=N[C@@H](Cc1ncco1)c1nnc(C)n1-2 [I-371] | > 3000 nM | > 3000 nM | > 3000 nM | > 3000 nM | – | – | – | –
27 | Cc1sc2c(c1C)C(c1ccc(N3CCC[C@H](C(=O)N4CCC[C@H](c5ccc(C(=O)N[C@H]6CC[C@H](Oc7ccc(C#N)c(Cl)c7)CC6)nn5)C4)C3)cc1)=N[C@H](Cc1ncco1)c1nnc(C)n1-2 [I-303] | > 3000 nM | > 3000 nM | > 3000 nM | > 3000 nM | – | – | – | –
28 | Cc1sc2c(c1C)C(c1ccc(CN3CC(=O)N4C[C@@H](c5ccc(C(=O)N[C@H]6CC[C@H](Oc7ccc(C#N)c(Cl)c7)CC6)nn5)C[C@H]4C3=O)cc1)=N[C@@H](Cc1ncco1)c1nnc(C)n1-2 [I-346] | < 500 nM | > 3000 nM | < 500 nM | 500 to 1500 nM | – | – | – | –
29 | Cc1sc2c(c1C)C(c1ccc(OC[C@@H]3CC[C@@]4(CCCN(c5ccc(C(=O)N[C@H]6CC[C@H](Oc7ccc(C#N)c(Cl)c7)CC6)nn5)C4)C3)cc1)=N[C@@H](Cc1ncco1)c1nnc(C)n1-2 [I-103] | < 500 nM | < 500 nM | < 500 nM | < 500 nM | – | – | – | –
